Measurements from publication PMC13492205, “LC–MS/MS method for the quantitation of a dual PI3K/BRD4 inhibitor SF2523 in mouse plasma: Application to plasma protein binding and metabolism studies” (Biomedical chromatography : BMC, 2023).

Key:
[1] = In vitro metabolic stability in mouse S9; details: for metabolic stability of positive controls: S9 and microsomes, in-house limits
Description: (§1) For metabolic stability samples, extractions (50 μl) were taken at each pre-determined time point and mixed with 300 μl of ice-cold methanol containing IS in a 1.5 ml centrifuge tube. Then, samples were vortexed for 2 min and centrifuged (17,950g) for 10 min. An aliquot (100 μl) of the clear supernatant was transferred into an autosampler vial and 2 μl was injected into the LC–MS/MS system.
Metabolic stability was assessed using mouse, rat and human liver microsomes, and mouse liver S9 fractions (XenoTech, LLC, Lenexa, KS, USA) were used for the in vitro assessment of phase I and II metabolism. Incubation with S9 fractions was performed in triplicate, at 2 μM SF2523 concentration as described in our previous report ([Aldhafiri et al., 2020]; [Bala et al., 2020]). The reaction was started by adding 2 μl of SF2523 at a final concentration of 2 μM. Serial samples (50 μl) were collected at selected time intervals and quenched with 300 μl of methanol spiked with 10 μl of IS (0.5 μg/ml). All of the samples were vortexed and centrifuged at 13,000g for 15 min, and the supernatant was collected and transferred to an autosampler vial and injected (2 μl) onto the LC–MS/MS system. Testosterone 7-hydroxycoumarin and diclofenac were used as positive controls to ensure that S9, microsomes and the incubation conditions were appropriate to conduct metabolism studies.
The S9 fraction and microsomal stability were expressed as the percentage of drug remaining at each time. The in vitro metabolic elimination rate constant was determined from the first-order plot of a natural logarithm of the area ratio vs. time. The slope of the linear regression equation was used to determine the elimination rate constant k (min^−1).

[2] = Stability of SF2523 in mouse plasma under storage conditions; format: in vitro ADME
Description: Stability in mouse plasma was assessed in triplicate at LQC and HQC concentrations at room temperature (6 h, 25 ± 5°C), and after three freeze–thaw cycles (−80°C) and long-term storage (60 days at −80°C). Additionally, the 24 h autosampler stability of extracted samples (at 4°C) was determined.

[3] = Gastrointestinal fluid stability (SGF, SIF, phosphate buffer); format: physicochemical; details: 37°C
Description: Simulated GIs were prepared according to United States Pharmacopoeia (USP) specifications. Briefly, SF2523 at 10 μM concentration was incubated with simulated gastric fluid (SGF). Simulated intestinal fluid (SIF) and phosphate buffer (100 mM, pH 7.4) were kept at 37°C in a shaking water bath, each in triplicate. Samples (100 μl) were collected at 0, 15, 30, 60 and 120 min. Immediately after sample collection, 5 vols of methanol containing IS were added and samples were prepared for analysis. Stability was determined as the percentage of parent compound detected at each time point relative to the concentration at 0 min in buffer (100%) ([Wang et al., 2015]).

[4] = In vitro metabolic stability in human S9; format: in vitro ADME; details: S9 fraction; human S9, 2 μM; read-out: in vitro t1/2
[5] = Blood-to-plasma ratio in mouse blood; format: in vitro ADME
Description: At different time points (0, 30 and 60 min) aliquots (50 μl) were collected for blood analysis, and an additional sample (120 μl) was transferred to a microcentrifuge tube and centrifuged at 4,000g for 10 min at 4°C to separate 50 μl plasma for analysis. The whole blood and plasma samples were further processed by SPE as described above. The analyte peak area ratios were used to calculate the blood-to-plasma (B/P) ratio using Equation (4).
(4) ∕PBration=Analyte concentration in whole blood/Analyte concentration in plasma

[6] = In vitro metabolic stability in mouse liver microsomes; format: in vitro ADME; details: read-out: in vitro t1/2
Description: as §1
(§2) Metabolic stability was assessed using mouse, rat and human liver microsomes, and mouse liver S9 fractions (XenoTech, LLC, Lenexa, KS, USA) were used for the in vitro assessment of phase I and II metabolism. Incubation with S9 fractions was performed in triplicate, at 2 μM SF2523 concentration as described in our previous report ([Aldhafiri et al., 2020]; [Bala et al., 2020]). The reaction was started by adding 2 μl of SF2523 at a final concentration of 2 μM. Serial samples (50 μl) were collected at selected time intervals and quenched with 300 μl of methanol spiked with 10 μl of IS (0.5 μg/ml). […]
(§3) The S9 fraction and microsomal stability were expressed as the percentage of drug remaining at each time. The in vitro metabolic elimination rate constant was determined from the first-order plot of a natural logarithm of the area ratio vs. time. […]

[7] = Stability of SF2523 in mouse plasma under storage conditions; format: in vitro ADME; details: nominal 200 ng/ml, mean ± SD, n = 3, read-out: Stability recovery, Accuracy (%)
[8] = Metabolite identification in mouse S9 fraction; format: in vitro ADME; details: phase I and II, 35 min gradient LC–MS/MS
Description: For metabolite identification, mass shift analyses were performed using the same LC–MS/MS system. […] The parent drug MS/MS spectrum was used as a template model for structure identification and assuming that the fragmentation pattern of the parent drug from the production spectrum was used to deduce the structures of the metabolites ([Francis et al., 1999]). The data acquisition for the metabolite identification study was conducted using Labsolution software (Shimadzu Scientific Instruments, Columbia, MD, USA, version 5.8).

[9] = In vitro metabolic stability in human liver microsomes; format: in vitro ADME; details: read-out: in vitro t1/2
Description: as §1, §2, §3

[10] = Plasma protein binding by rapid equilibrium dialysis; format: in vitro ADME, mouse; details: mouse plasma, mean, n = 3
Description: (§4) The sample contained mouse plasma spiked with 1 or 10 μM SF2523 and was added to the sample chamber. The rapid equilibrium dialysis kit top was then sealed and incubated at 37°C on an orbital shaker at 100 rpm for 5 h.
(§5) At pre-determined times, aliquots (40 μl) were removed from the sample, and buffer chambers and mixed with an equal volume of buffer or blank plasma, respectively. The samples were further processed by SPE as described above and analyzed by LC–MS/MS. The stability, equilibrium, device recovery and PPB were calculated using the following equations ([Lindup & Orme, 1981]): (5) %Remaining at5h=[…]/Concentration0h×100 (6) %Equilibrium=Concentrationreceiver cell/Concentrationdonor cell×100 (7) %Device Recovery=Concentrationreceiver cell+Concentrationdonor cell/Concentration0h×100 (8) %Bound=Concentrationdonor cell−Conentrationreceiver cell/Concentrationdonor cell×100

[11] = tested on: mouse plasma proteins; assay: as above; format: in vitro ADME
Description: as §4, §5

For `O=c1ccc2ccc(O)cc2o1` [7-hydroxycoumarin], the “metabolic stability of positive controls” value [1] was “within acceptable in-house limits”.

In the case of `O=c1cc(N2CCOCC2)oc2c(-c3ccc4c(c3)OCCO4)csc12` [SF2523], the recovery at 6 h, 0.3 ng/ml ([2]; mouse plasma, Bench-top stability for 8 h at (21°C, 6 h), nominal 0.3 ng/ml, mean ± SD, n = 3, read-out: Stability recovery, Accuracy (%)) is reported as 95.8 ± 4.03%, the recovery at 6 h, 375 ng/ml ([2]; mouse plasma, Bench-top stability for 8 h at (21°C, 6 h), nominal 375 ng/ml, mean ± SD, n = 3, read-out: Stability recovery, Accuracy (%)) is reported as 111.2 ± 0.21% and the recovery at 60 days, 0.3 ng/ml ([2]; mouse plasma, Long-term stability (60 days, −80°C), nominal 0.3 ng/ml, mean ± SD, n = 3, read-out: Stability recovery, Accuracy (%)) is reported as 103 ± 2.62%. The recovery at 60 days, 375 ng/ml ([2]; mouse plasma, Long-term stability (60 days, −80°C), nominal 375 ng/ml, mean ± SD, n = 3, read-out: Stability recovery, Accuracy (%)) was 97.25 ± 0.35%, the recovery at 0.3 ng/ml ([2]; mouse plasma, Three freeze-thaw cycles (−80°C to room temperature), nominal 0.3 ng/ml, mean ± SD, n = 3, read-out: Stability recovery, Accuracy (%)) was 92.9 ± 12.3% and the recovery at 375 ng/ml ([2]; mouse plasma, Three freeze-thaw cycles (−80°C to room temperature), nominal 375 ng/ml, mean ± SD, n = 3, read-out: Stability recovery, Accuracy (%)) was 113.7 ± 0.14%. It also gave a recovery at 24 h, 0.3 ng/ml ([2]; mouse, extracted plasma samples, Autosampler stability (4°C, 24 h), nominal 0.3 ng/ml, mean ± SD, n = 3, read-out: Stability recovery, Accuracy (%)) of 105 ± 5.16%, a recovery at 24 h, 375 ng/ml ([2]; mouse, extracted plasma samples, Autosampler stability (4°C, 24 h), nominal 375 ng/ml, mean ± SD, n = 3, read-out: Stability recovery, Accuracy (%)) of 103 ± 1.13% and a parent drug remaining ([2]; under a variety of storage conditions) greater than 90%. For the same compound, the parent remaining ([3]; phosphate buffer pH 7.4, 10 μM, after 2 h) was greater than 90%, the parent remaining ([3]; simulated gastric fluid (SGF), pH 1.2, 10 μM, after 1 h) was greater than 90% and the parent remaining ([3]; simulated intestinal fluid (SIF), pH 6.8, 10 μM, after 2 h) was greater than 90%. It also gave a half-life at 2 μM ([1]; mouse, liver S9 fraction) of less than 2 min, a half-life at 2 μM [4] of less than 2 min and a B/P ([5]; At 0.1 μg/ml, time point 0 min) of 0.85. It also gave a B/P ([5]; At 0.1 μg/ml, time point 30 min) of 0.98, a B/P ([5]; At 0.1 μg/ml, time point 60 min) of 0.83 and a B/P ([5]; At 1 μg/ml, time point 0 min) of 0.85. It also gave a B/P ([5]; At 1 μg/ml, time point 30 min) of 0.93, a B/P ([5]; At 1 μg/ml, time point 60 min) of 0.93 and a blood plasma ratio at 0.1 μg/ml ([5]; whole blood, 0.1 μg/ml, overall value, read-out: blood-to-plasma ratio (B/P)) of 0.88. It also gave a blood plasma ratio at 1 μg/ml ([5]; whole blood, 1 μg/ml, overall value, read-out: blood-to-plasma ratio (B/P)) of 0.9, a half-life at 2 μM [6] of less than 2 min and a recovery at 6 h, 200 ng/ml ([7]; mouse plasma, Bench-top stability for 8 h at (21°C, 6 h)) of 107 ± 4.5%. It also gave a recovery at 60 days, 200 ng/ml ([7]; mouse plasma, Long-term stability (60 days, −80°C)) of 103 ± 11.2%, a recovery at 200 ng/ml ([7]; mouse plasma, Three freeze-thaw cycles (−80°C to room temperature)) of 101 ± 5% and a recovery at 24 h, 200 ng/ml ([7]; mouse, extracted plasma samples, Autosampler stability (4°C, 24 h)) of 101 ± 1.77%. The “number of metabolites identified” value [8] was “Seven”, the half-life at 2 μM [9] was less than 2 min and the fraction unbound at 5 h, 1 µM ([10]; at 1 µM, read-out: Percentage plasma protein bound (converted)) was 0.0418. For the same compound, the fraction unbound at 5 h, 10 µM ([10]; at 10 µM, read-out: Percentage plasma protein bound (converted)) was 0.0327, the recovery at 5 h ([10]; mouse, mouse plasma in rapid equilibrium dialysis device, rapid equilibrium dialysis device, read-out: Percentage device recovery) was greater than 90% and the “Percentage remaining at 5 h (stability)” value ([11]; mouse plasma, 37°C, 5 h incubation, mean, n = 3) was 99.06%. The “bound to mouse plasma proteins” value ([11]; mouse plasma, both tested concentrations) was greater than 95% and the Percentage device recovery ([11]; rapid equilibrium dialysis device, mouse plasma, mean, n = 3) was 98.58%.

With `O=C(O)Cc1ccccc1Nc1c(Cl)cccc1Cl` [diclofenac] the “metabolic stability of positive controls” value [1] was “within acceptable in-house limits”.

For `CC(C)NCC(O)COc1cccc2ccccc12` (stereo not drawn) [propranolol, reference compound], the “plasma protein binding of positive control drugs” value ([11]; compared with limits reported in the literature (Barber et al., 1978)) was “within the acceptable limits”.

In the case of `C[C@]12CC[C@H]3[C@@H](CCC4=CC(=O)CC[C@@]43C)[C@@H]1CC[C@@H]2O` [testosterone], the “metabolic stability of positive controls” value [1] is reported as “within acceptable in-house limits”.
